Experimental data from patent publication US8993593B2, “N-(4-(6-fluoro-3,4-dihydroisoquinolin-2(1H)-yl)-2,6-dimethylphenyl)-3,3-dimethylbutanamide as potassium channel modulators” (Valeant Pharmaceuticals International, priority 2006, dated 2015).

Columns and labels:
KCNQ1/NE1 = KCNQ1/NE1 (Homo sapiens, UniProt P51787); assay: Two-electrode voltage-clamp in Xenopus laevis oocytes, KCNQ1/KCNE1; type: cell-based; parameters: dose or concentration left out as unconfirmed; conditions: oocyte expression
Chain of KCNQ1/NE1 (P51787 whole entry): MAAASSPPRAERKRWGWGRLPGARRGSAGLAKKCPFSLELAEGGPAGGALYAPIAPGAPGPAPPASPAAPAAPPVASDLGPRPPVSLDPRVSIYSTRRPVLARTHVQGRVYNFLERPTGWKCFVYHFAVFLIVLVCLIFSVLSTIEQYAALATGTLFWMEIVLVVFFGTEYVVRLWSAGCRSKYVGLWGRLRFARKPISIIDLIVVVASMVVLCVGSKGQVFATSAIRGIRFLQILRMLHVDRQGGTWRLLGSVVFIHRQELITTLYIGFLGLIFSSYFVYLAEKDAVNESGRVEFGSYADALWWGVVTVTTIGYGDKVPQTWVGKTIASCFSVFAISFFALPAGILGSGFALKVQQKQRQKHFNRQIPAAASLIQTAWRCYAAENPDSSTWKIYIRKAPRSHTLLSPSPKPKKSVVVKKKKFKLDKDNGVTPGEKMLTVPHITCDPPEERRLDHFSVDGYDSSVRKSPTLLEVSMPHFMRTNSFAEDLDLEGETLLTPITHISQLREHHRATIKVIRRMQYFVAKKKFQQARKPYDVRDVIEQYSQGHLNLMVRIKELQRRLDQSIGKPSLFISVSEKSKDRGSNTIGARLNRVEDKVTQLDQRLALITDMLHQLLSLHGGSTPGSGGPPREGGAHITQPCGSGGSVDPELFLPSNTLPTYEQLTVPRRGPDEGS
Description: (§1) Female Xenopus laevis extracted ovaries were purchased from eNASCO (LM00935MX, eNASCO Fort Atkinson, Wis.). […] Approximately 50 nl cRNA (about 50 ng) was injected for KCNQ1, KCNQ4, and KCNQ5 using a Nanoject microinjector (Drummond, Broomall, Pa., USA). For co-expression of KCNQ2 and KCNQ3 and of KCNQ1 and KCNE1, cRNA's were mixed in equal molar ratios before injection of approximately 50 nl. […] Oocytes were kept in Culture Barth solution at 19° C. which was changed daily and currents were recorded after 3 to 5 days.
KCNQ channel currents expressed in Xenopus laevis oocytes were recorded using a two-electrode voltage-clamp. […]
(§2) Data were acquired by means of an Axograph X software (Axograph Scientific, Sydney, AU) and analyzed using Graph Pad Prism (GraphPad Software Inc., CA, USA). […]
(§3) After steady channel current was recorded in the presence of Retigabine at its EC75, recorded oocyte was washed with the recording solution until its steady current returned to its normal level without the presence of any drugs. Then the channel steady current was recorded in the presence of the test compound at its EC75. The percent efficacy was then expressed as: % efficacy=(C2/C 1)×100 where C2 is the recorded steady current in the presence of follow-on compound at its EC75 and C1 is the recorded steady current in the presence of Retigabine at its EC75.

KCNQ1 = KCNQ1 (Homo sapiens, UniProt P51787); assay: Two-electrode voltage-clamp in Xenopus laevis oocytes, KCNQ1; type: cell-based; parameters: KCNQ1 Block (%): dose or concentration left out as unconfirmed
Description: as §1
KCNQ channel currents expressed in Xenopus laevis oocytes were recorded using a two-electrode voltage-clamp. […] The oocytes were placed in custom built perfusion chambers connected to a continuous flow system and impaled with a current electrode and a voltage-clamp electrode pulled from borosilicate glass on a Flaming/Brown Micropipette Puller (Sutter Instruments Co, Novato, Calif., USA).
All compounds were dissolved in DMSO to obtain concentrated stock solutions. On the day of electrophysiological experiments the stock solutions were thawed and diluted in recording solution to their final concentrations. The final DMSO concentration never exceeded 0.1%. Compound delivery was performed using a custom built multi-barrel apparatus connected to the flow system.
as §2, §3

[1] = test system: mouse maximal electroshock seizure (MES) model; assay: Maximal electroshock seizure (MES) test, mouse; type: in vivo; conditions: Mus musculus, po; murine MES model, dosed orally 2 hours prior to testing; read-out: ED50, inhibition of seizures
Source text: The MES testing protocol is based on procedures established at the National Institute of Neurological Disorders and Stroke in conjunction with the Anticonvulsant Screening Program (ASP) at the University of Utah (White, H. S., Woodhead, J. H., Wilcox, K. S., Stables, J. P., Kupferberg, H. J and Wolf, H. H. 2002. “General Principles: Discovery and Preclinical Development of Antiepileptic Drugs,” in Antiepileptic Drugs, 5th Edition, R. H. Levy, ed.; R. H. Mattson, B. S. Meldrum, and E. Perucca. Philadelphia, Lippincott Williams & Wilkins.), The goal of the test rapid identification and characterization of the in vivo anticonvulsant activity of any compounds that have been shown active in PC-12 cellular based Rb^+ efflux assay.
Adult male CF-I albino mice (18-25 g, Charles River Laboratories) are exclusively used for in-house MES screen of compounds. Male Sprague-Dawley albino rats (100-125 g, Charles River Laboratories) are also used to test anticonvulsant compounds. Variability of test outcomes is reduced by using animals of the same sex, age, and weight. Animals are permitted to rest and recover from transit for at least 48 hr prior to experimentation. Animals are used for AED testing only once. In some instances, the animals may be anesthetized prior to blood collection and/or whole brain extraction for pharmacokinetic assay. All animals are maintained and handled as outlined in standard animal care guidelines.
In the experiments, testing compounds are prepared as suspensions in 0.5% methyl cellulose (Sigma, Cat #M0512, Viscosity 4000 cP at 20° C.) in water, regardless of solubility. Dry powder compounds are initially ground with a glass rod in a test tube in several drops of methyl cellulose to create a paste and to break down any large chunks. After several minutes of grinding, the volume of the suspension is increased to the final concentration desired. The suspension is then sonicated using a Branson sonicator model 3510 in a water bath at room temperature for 15 minutes. Compound suspensions are further vortexed prior to animal dosing. In some of the cases, DMSO is used to initially solubilize compounds in small volumes and then this solution is added to the 0.5% methyl cellulose solution, in order to create more even and less aggregated compound suspensions. The final concentration of DMSO is 3.75%, an amount with no apparent toxicity or neuroprotective effects in our usual rotarod and MES tests. Methyl cellulose/DMSO compound suspensions are identically prepared for intraperitoneally (i.p.) to mice or orally (p.o.) to rat dosing.
Initially the animals are weighed with an electronic scale and then marked. Data recording sheets are generated for each compound assessment. Mice or rats are dosed with the compound suspension at 0.01 mL/g of body weight. The typical injection volume range is between 180-250 μl for mice. […] Rats are p.o. dosed using a flexible feeding tube, typically starting at a compound dose of 5 mg/kg.
A Rodent Electroconvulsive Stimulator (Model 200, Hamit-Darvin-Freesh, Snow Canyon Clinic, Ivins, Utah) is used for MES testing. A 60-Hz alternating current (50 mA for mice; 150 mA for rats) is delivered for 0.2 seconds through corneal electrodes to the mice. A drop of 0.5% tetracaine (Sigma, Cat. #T-7508) solution is placed on the eye prior to current delivery. The electrodes are subsequently placed gently onto the eyes of the animal and the electrical shock is initiated by triggering through a foot-pedal activator. The animals are restrained by hand and gently released as the shock is delivered and the seizure commences. Animals are monitored for hind limb tonic extension as the end point for this test. Current delivery is recorded as a measure of overall seizure-induction potential. Electrical current delivery can vary from approximately 30-55 mA (mice) or 90-160 mA (rats) depending on impedance in the animal and quality of the current delivery (ie. correct placement of the electrodes on the cornea). […]

KCNQ2 channels = target: T1, KCNQ2 channels (Homo sapiens, UniProt O43526); assay: Potassium ion efflux, KCNQ2 channels expressed in CHO cells; type: cell-based
T1 construct: expressed in transfected cells; host or cells: CHO cells
T1 sequence (O43526 whole entry): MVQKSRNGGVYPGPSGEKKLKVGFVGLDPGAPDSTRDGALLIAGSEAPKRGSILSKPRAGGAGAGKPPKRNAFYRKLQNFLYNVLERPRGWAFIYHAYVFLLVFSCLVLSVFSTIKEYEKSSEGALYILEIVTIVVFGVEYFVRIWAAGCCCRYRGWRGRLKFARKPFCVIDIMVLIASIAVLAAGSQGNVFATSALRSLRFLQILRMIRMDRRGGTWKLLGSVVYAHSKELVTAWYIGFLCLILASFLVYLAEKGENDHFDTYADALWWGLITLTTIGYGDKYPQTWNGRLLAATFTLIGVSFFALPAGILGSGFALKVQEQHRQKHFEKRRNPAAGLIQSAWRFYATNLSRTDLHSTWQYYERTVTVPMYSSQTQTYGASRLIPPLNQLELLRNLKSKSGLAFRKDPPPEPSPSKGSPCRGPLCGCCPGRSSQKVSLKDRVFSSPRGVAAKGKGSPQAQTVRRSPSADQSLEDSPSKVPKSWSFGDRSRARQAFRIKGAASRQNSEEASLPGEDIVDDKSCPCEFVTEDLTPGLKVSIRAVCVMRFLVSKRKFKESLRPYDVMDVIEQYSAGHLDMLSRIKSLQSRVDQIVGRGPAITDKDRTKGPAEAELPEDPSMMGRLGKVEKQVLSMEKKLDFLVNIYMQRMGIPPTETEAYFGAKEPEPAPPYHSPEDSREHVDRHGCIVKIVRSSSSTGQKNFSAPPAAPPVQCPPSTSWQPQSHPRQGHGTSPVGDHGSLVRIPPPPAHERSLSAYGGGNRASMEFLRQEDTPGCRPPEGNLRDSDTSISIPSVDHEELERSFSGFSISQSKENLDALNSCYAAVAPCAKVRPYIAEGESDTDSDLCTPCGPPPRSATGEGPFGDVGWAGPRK
Description: Using natively expressed M-currents present in differentiated pheochromocytoma (PC-12) cells and CHO cells transfected with KCNQ2 and hERG potassium channels, the in vitro activity of compound A on potassium ion efflux was determined.
The EC50 values for retigabine and compound A on the activation of KCNQ2 channels expressed in CHO cells were determined on three separate occasions in triplicate.

Structure (SMILES): Cc1cc(N2CCc3cc(F)ccc3C2)cc(C)c1NC(=O)CC(C)(C)C [compound A, N-[4-(6-fluoro-3,4-dihydro-1H-isoquinolin-2-yl)-2,6-dimethylphenyl]-3,3-dimethyl butanamide]
- KCNQ1/NE1 Block (%) (KCNQ1/NE1): 3.5%
- KCNQ1 Block (%) (KCNQ1; oocyte expression): 0%
- effect on KCNQ1 (cardiac potential) (KCNQ1; selectivity versus KCNQ2-5, in words): not affecting
- ED50 [1]: 2.2 mg/kg
- EC50 (KCNQ2 channels): 11 nM
